These results are taken from publication PMC2244645, “Peptide ligand screening of α-synuclein aggregation modulators by in silico panning” (BMC Bioinformatics, 2007).

The subject of series [1] is α-synuclein. The following applies: cited from earlier work.
In series [2] the target is T1, α-synuclein (Homo sapiens, UniProt P37840).
T1 construct: made in house; host or cells: Escherichia coli BL21(DE3)
The series can be described thus: light scattering assay at 330 nm (total aggregation). It is filed as biochemical. The following applies: 5-fold molar excess of peptide, 10 mM Tris-HCl pH 7.4, 0.02% NaN3, 37°C, shaking. On the procedure: (§1) To determine the effect of peptides on α-synuclein aggregation, we co-incubated α-synuclein with 5-fold molar excess of the screened peptides. The α-synuclein fibril amounts were evaluated by Thioflavin T (TfT) binding assay. It is known that when TfT binds to amyloid fibrils, the fluorescence intensity around 480 nm increases. […] Next, to determine whether or not these increases in fluorescence intensity depend on the fibril amount, we examined the aggregation amount by a light scattering assay at 330 nm. The value of optical density at 330 nm of the α-synuclein solution with the top peptides was also higher compared with that of the α-synuclein solution without peptide, as shown in Figure 4.
Figure 4 Light scattering assay. […] 100% is the optical density at 330 nm of α-synuclein without peptide. […]
(§2) All the protein samples were concentrated to approximately 4.0 mg/ml by means of Amicon Ultra-15 filters (Millipore) in 10 mM Tris-HCl, pH 7.4, and centrifuged at 150,000 g for 60 min to remove the insoluble aggregates. […] Fibril formation was monitored by thioflavin T (TfT) fluorescence: 10 μl aliquots were sampled from the incubated samples and added to 1.0 ml of 25 μM TfT in 10 mM Tris buffer, pH 7.4. Fluorescence emission was measured at 485 nm at an excitation wavelength of 450 nm on a FP6500 spectrofluorometer (JASCO). […]

Series [3] concerns the target T1, α-synuclein. The series can be described thus: Thioflavin T (TfT) binding assay of α-synuclein fibril formation. It is filed as biochemical. Particulars: α-synuclein 140 μM, peptide 700 μM (5-fold molar excess), 10 mM Tris-HCl pH 7.4, 0.02% NaN3, 37°C, shaking; 25 μM TfT. On the procedure: as §1
Figure 3 Time course of α-synuclein fibril formation. […] 100% is the final fluorescence intensity of α-synuclein without peptide. […]
as §2

Series [4] deals with T1, α-synuclein. The series can be described thus: surface plasmon resonance binding (CM5 sensor chip). The following applies: Scatchard plot; for affinity to α-synuclein (in words): peptide immobilized on CM5 chip by amine coupling, α-synuclein injected. The procedure: The affinities of the screened peptides were determined by surface plasmon resonance measurement. The screened peptides were immobilized on a CM5 sensor chip by amine coupling. […] Thus, we added an alanine residue to the N-terminals of these peptides to immobilize them on the CM5 sensor chip and evaluated them. The dissociation constants were determined using a Scatchard plot. […] In the case of PTYF, its KD was more than 10 times that of QSTQ. Since docking simulation still has problems inaccuracy, we have to evaluate several peptides to find good ligands. In this study, we can obtain the high affinity peptide by assaying the top 4 peptides.
Human wild-type α-synuclein expressed in Escherichia coli BL21(DE3) cells transformed the pET28a/human α-synuclein WT plasmid. Following induction with 1 mM isopropyl-1-thio-β-D-galactopyranoside, the α-synuclein was purified by anion exchange chromatography. The bacterial cells were harvested by centrifugation at 5,000 g for 10 min and lysed in 500 mM NaCl, 20 mM Tris-HCl, pH 8.0, and 1 mM EDTA. The lysate was then boiled for 20 min, and centrifuged for 10 min at 20,000 g. The supernatant was dialyzed against 20 mM Tris-HCl, pH 8.0, loaded onto a ResourseQ 6-ml column (Amersham Biosciences) equilibrated in the same buffer, and eluted with a 0 ~1 M NaCl gradient. The α-synuclein-containing fraction was dialyzed against 10 mM Tris-HCl, pH 7.4.
All peptides were immobilized onto the CM5 sensor chip by amine coupling. The CM5 sensor chip (Biacore) was activated by an equimolar mix of NHS (N-hydroxysuccinimide) and EDC (N-ethyl-N'-(dimethylaminopropyl) carbodiimide), coupled with 100 μg/mL of the synthesized peptide in pH-6.0 sodium acetate buffer, and then blocked with ethanolamine. For reference, only activation and protection was carried out, in the same way as mentioned above. The final coupling level of each peptide was approximately 100 RU. Each of the α-synuclein solutions was injected, and at different concentrations a signal increase was observed. The sensor surface was regenerated using 0.5% SDS. The dissociation constants were determined using a Scatchard plot and an equilibrium point.
(Surface plasmon resonance follows binding to a sensor surface in real time, without labels.)

The subject of series [5] is α-synuclein 68–78 (GAVVTGVTAVA). Particulars: ref [14]; cited from earlier work. From the text: To obtain an effective peptidic aggregation inhibitor, the peptide should bind to the region that plays an important role in amyloid fibril formation. The hydrophobic central region of α-synuclein called the "non-amyloid-β component of the amyloid plaque" (NAC) (residues 61–95) is the most important region in the formation of amyloid-like fibrils.

Peptide text beside a SMILES is read from it.

`N[C@@H](Cc1ccc(O)c(O)c1)C(=O)O` [L-DOPA]: the “cytotoxicity (in words)” value with α-synuclein [1] was “enhance cytotoxicity”.
Consider `C[C@@H](O)[C@H](NC(=O)[C@H](CO)NC(=O)[C@@H](N)CCC(N)=O)C(=O)N[C@@H](CCC(N)=O)C(=O)O` [QSTQ] (H-QSTQ-OH; N-terminus and C-terminus assumed), for which the “optical density at 330 nm relative to solution without peptide” value on α-synuclein [2] is reported as “more than 1.5 times”. The “fluorescence intensity of TfT relative to solution without peptide” value on α-synuclein [3] was “more than 1.5 times”.
Turning to “AQTQ [tetramer peptide from in silico panning, rank 4]”, the “affinity to α-synuclein (in words)” value on α-synuclein [4] was “bound to α-synuclein with similar affinity of QSTQ”. In addition, on α-synuclein [2], the “optical density at 330 nm relative to solution without peptide” value is “more than 1.5 times”.
In the case of “GAVVTGVTAVA [α-synuclein 68–78, partial peptide in NAC, the target 11-mer peptide]”, the “amyloid-like fibril formation by itself (in words)” value in series [5] is “form amyloid-like fibrils by themselves”.
With “GSQQ [tetramer peptide from in silico panning, rank 2]”, the “affinity to α-synuclein (in words)” value at α-synuclein [4] was “lower affinity than QSTQ and AQTQ”.
As for PTYF, the “KD relative to KD of QSTQ” value on α-synuclein [4] (peptide immobilized on CM5 chip, alanine residue added to N-terminal) is given as “more than 10 times”.
As for “SQTQ [tetramer peptide from in silico panning, rank 3]”, the “affinity to α-synuclein (in words)” value at α-synuclein [4] is “lower affinity than QSTQ and AQTQ”.
